Laboratory results from patent US20220289731A1, “MELANOCORTIN-4 RECEPTOR AGONISTS” (LG CHEM, LTD., priority 2019, published 2022).

Tests used:
Assay type in all cases: cell-based
MC4R [1] = molecular target: T1, MC4R (Homo sapiens, UniProt P32245); assay: cAMP assay (cAMP Hunter Gs-coupled CHO-K1 cell line); parameters: expressed in transfected cells; host or cells: CHO-K1 (cAMP Hunter Gs-coupled cell line); details: CHO-K1 cells overexpressing MC4R, 30 min at 37° C.
Text: The melanocortin receptor is a type of G-protein coupled receptor (GPCR), and the main role of G-protein is to activate secondary transducers to regulate cellular responses to many physiological stimuli through signal transduction. MC4R is a Gs-coupled receptor, and it is known that if MC4R interacts with an agonist, adenylate cyclase (AC) is activated to increase the concentration of cyclic AMP (cAMP), which is one of the secondary transducers in cells. Therefore, it is possible to evaluate the activity of melanocortin receptors by measuring the generation of cAMP signals.
After cAMP Hunter Gs-coupled cell lines (CHO-K1 cell line) in which each of MC1R, MC3R, MC4R and MCSR was overexpressed were established so that the increase in the cAMP level in cells due to agonist reaction was measurable, the cells were inoculated into each well of a white cell culture plate and incubated for 24 hours in a 37° C. incubator in the presence of 5% CO2. After the incubation, the medium was removed, and 15 μl of a 2:1 HBBS/10 mM HEPES:cAMP XS+Ab reagent was added. After 5 μl of the sample diluted 4 times with buffer was added, the vehicle concentration was set to 1%, and the MC4R agonist compound diluted at each step concentration was added, followed by reaction at 37° C. for 30 minutes. The activity (%) of each agonist compound is expressed as 100%×(average RLU value of sample−average RLU value of vehicle control)/(average RLU value of max control−average RLU value of vehicle control), and the value was analyzed by CBIS data analysis suite (ChemInnovation, CA).
Target sequence in this assay (P32245 whole entry, species assumed): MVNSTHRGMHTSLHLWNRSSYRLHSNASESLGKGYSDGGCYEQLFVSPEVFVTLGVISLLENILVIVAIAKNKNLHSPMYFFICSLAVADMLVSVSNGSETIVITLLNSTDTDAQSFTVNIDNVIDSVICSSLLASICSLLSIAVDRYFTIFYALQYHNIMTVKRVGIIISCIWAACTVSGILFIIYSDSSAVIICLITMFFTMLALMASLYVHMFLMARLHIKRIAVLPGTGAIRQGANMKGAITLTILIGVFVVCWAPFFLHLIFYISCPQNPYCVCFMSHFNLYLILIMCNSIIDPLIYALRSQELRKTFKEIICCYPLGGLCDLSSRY

MC4R [2] = molecular target: T1, MC4R; assay: β-arrestin assay (Pathhunter eXpress U2OS cell line); parameters: expressed in transfected cells; host or cells: U2OS (Pathhunter eXpress β-arrestin cell line); details: U2OS cells, 90 min at 37° C.
Text: The melanocortin receptor is a type of G-protein coupled receptor (GPCR) and regulates various physiological responses by transducing signals from many neurotransmitters. When GPCR is phosphorylated, β-arrestin is bound to the phosphorylated part of the receptor and plays an important role in activating various signaling pathways in cells through interaction with other proteins. It is known that, when the melanocortin receptor interacts with an agonist, β-arrestin is mobilized and is involved in the β-arrestin-mediated signaling pathway. Therefore, the activity of the melanocortin receptor can be evaluated through the measurement of β-arrestin.
A Pathhunter eXpress β-arrestin cell line (U2OS cell line) in which Prolink (PK)-tagged MC1R, MC3R, MC4R, MC5R and Enzyme acceptor (EA)-tagged β-arrestin were expressed together was established. When the MCR-PK portion of this cell line is activated, β-arrestin-EA is mobilized, and enzyme acceptor (EA) and Prolink (PK), which are the β-galactosidase enzyme fragments, interact. The activated enzyme hydrolyzes the substrate by β-galactosidase activity to produce a chemiluminescent signal, so that the activity can be measured. After the Pathhunter eXpress β-arrestin cell line (U2OS cell line) was incubated, the cells were inoculated into each well of the cell culture plate and incubated for 48 hours in a 37° C. incubator in the presence of 5% CO2. After the incubation, 5 μl of the sample diluted 5 times with buffer was added, the vehicle concentration was set to 1%, and the MC4R agonist compound diluted at each step concentration was added, followed by reaction at 37° C. for 90 minutes. The activity (%) of each agonist compound is expressed as 100%×(average RLU value of sample−average RLU value of vehicle control)/(average maximum value of control ligand−average RLU value of vehicle control), and the value was analyzed by CBIS data analysis suite (ChemInnovation, CA).
Target sequence in this assay (P32245 whole entry): as the sequence (P32245 whole entry, species assumed) above
Target sequence in this assay (P32121 whole entry partner): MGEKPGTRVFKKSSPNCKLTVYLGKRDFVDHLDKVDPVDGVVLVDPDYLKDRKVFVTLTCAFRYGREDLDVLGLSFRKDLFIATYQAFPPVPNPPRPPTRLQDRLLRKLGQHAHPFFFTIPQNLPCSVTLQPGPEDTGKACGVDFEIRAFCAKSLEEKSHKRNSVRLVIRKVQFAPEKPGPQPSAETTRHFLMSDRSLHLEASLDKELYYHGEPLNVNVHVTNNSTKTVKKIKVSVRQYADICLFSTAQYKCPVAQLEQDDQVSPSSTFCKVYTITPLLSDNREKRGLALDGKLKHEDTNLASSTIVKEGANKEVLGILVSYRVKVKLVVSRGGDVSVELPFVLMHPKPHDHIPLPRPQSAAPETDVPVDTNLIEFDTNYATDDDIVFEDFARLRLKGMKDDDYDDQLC

MC4R [3] = molecular target: T1, MC4R; assay: Luciferase assay (HEK MC4R-Luc, CRE-LUC); parameters: expressed in transfected cells; details: HEK MC4R-Luc cells, 5 h incubation
Protocol: In order to measure the agonist ability against MC4R (melanocortin-4 receptor), a cell line that permanently expresses the luciferase gene (CRE-LUC) under the control of MC4R and CRE (cAMP response element) was established. After a mammalian cell expression vector (pCDNA3 (Neo)) (Invitrogen) containing the MC4R gene was prepared, human embryonic kidney (HEK) cell lines were transformed by using Lipofectamine 2000 (Invitrogen) together with a vector (pCRE-Luc)(Stratagen) expressing a luciferase gene (CRE-LUC) under the control of a cAMP response element (CRE). Transformed cell lines (HEK MC4R-Luc) were incubated in a 37° C. incubator in the presence of 5% CO2 for 24 hours by using Dulbecco's Modified Eagles Medium (DMEM) containing 10% Heat-Inactivated Fetal Bovine Serum (GIBCO/BRL). The cell lines were incubated for four days in the presence of Dulbecco's Modified Eagles Medium (DMEM) containing 10 ml of selection medium (10% Heat-Inactivated Fetal Bovine Serum (GIBCO/BRL), 100 unit/ml of penicillin (GIBCO/BRL), 100 unit/ml of streptomycin (GIBCO/BRL), 800 μg/ml of Geneticin (G418) (GIBCO/BRL). The process of removing cells killed by the selection medium by replacing the medium with 10 ml of a new selection medium was repeated three times, once every 4 days. Individual colonies formed by the finally selected and propagated clones were transferred under a microscope to a 24-well cell culture plate containing 1 ml of selection medium per well and incubated for 4 days. Forskolin (SIGMA) was treated to a final concentration of 10 μM, and then incubated for five hours in a 37° C. incubator in the presence of 5% CO2. Each well was treated with 50 μl of a Bright-Glo luciferase reagent (Promega) and left at room temperature for 15 minutes, and then the luminescence of each well was measured by using a luminometer (Victor).
HEK MC4R-Luc cells were added to each well of a 96-well luminometer cell culture plate (Costar) to a size of 2.5×10^4 cells in 100 μl of a culture medium and then incubated in a 37° C. incubator in the presence of 6% CO2 for 18 hours. […] Each well was treated with 50 μl of a Bright-Glo luciferase reagent (Promega) and left at room temperature for five minutes, and then the luminescence of each well was measured by using a luminometer (Victor). […] EC0.5 MSH is expressed as a concentration that induces 50% of the maximum amount of luminescence that can be induced by NDP-α-MSH, and EC50 is expressed as a concentration that induces 50% of the maximum amount of luminescence that can be induced by each agonist. The measurements were measured using statistical software (Prizm).
Target sequence in this assay (P32245 whole entry, species assumed): as the sequence (P32245 whole entry, species assumed) above

EC50 (MC4R [1]) [nM]	EC50 (MC4R [2]) [nM]	EC50 (MC4R [3]) [nM]	Structure (SMILES)
335	176	17.4	CC(=O)N(C1CCC(C)(C)CC1)[C@H]1C[C@@H](C(=O)N2CCOCC2)N(C(=O)[C@@H]2CN(C(C)(C)C)C[C@H]2c2ccc(F)cc2F)C1.Cl [Comparative Example 1 (A95), N-((3S,5S)-1-((3S,4R)-1-(tert-butyl)-4-(2,4-difluorophenyl)pyrrolidine-3-carbonyl)-5-(morpholine-4-carbonyl)pyrrolidin-3-yl)-N-(4,4-dimethylcyclohexyl)acetamide hydrochloride]
150	44.3	5.48	CC(=O)N(C1CCC(C)(C)CC1)[C@H]1C[C@@H](C(=O)N2CCOCC2)N(C(=O)[C@@H]2CN(C(C)(C)C)C[C@H]2c2ccc(Cl)cc2)C1.Cl [Comparative Example 2 (A96), N-((3S,5S)-1-((3S,4R)-1-(tert-butyl)-4-(4-chlorophenyl)pyrrolidine-3-carbonyl)-5-(morpholine-4-carbonyl)pyrrolidin-3-yl)-N-(4,4-dimethylcyclohexyl)acetamide hydrochloride]
36.5	4.6	0.562	CC(C)C(=O)N([C@H]1C[C@@H](C(=O)N2CCOCC2)N(C(=O)[C@@H]2CN(C(C)(C)C)C[C@H]2c2ccc(Cl)cc2)C1)[C@H]1CC[C@@H](C)CC1.Cl [Example 1, N-((3S,5S)-1-((3S,4R)-1-(tert-butyl)-4-(4-chlorophenyl)pyrrolidine-3-carbonyl)-5-(morpholine-4-carbonyl)pyrrolidin-3-yl)-N-((1s,4R)-4-methylcyclohexyl)isobutyramide hydrochloride]
